Source: PMC5856786, “A DHODH inhibitor increases p53 synthesis and enhances tumor cell killing by p53 degradation blockage” (Nature Communications, 2018)

How the values were obtained:
[1] = target: recombinant human DHODH (Homo sapiens, UniProt Q02127); test: Kinetic DHODH enzyme assay (3,4-dimethoxy-5-methyl-p-benzoquinone, DCIP); type: biochemical; parameters: made in house
Procedure: In Fig. 5a enzyme assays were optimized and performed with 6 nM recombinant human DHODH prepared as described. The reaction mixture for these kinetic assays consisted of 1 mM DL-dihydroorotic acid, 100 µM 3,4-dimethoxy-5-methyl-p-benzoquinone (#D9150, Sigma-Aldrich), and 100 µM DCIP in enzyme buffer. A stock solution of 20 mM DCIP was prepared in enzyme buffer and filtered through filter paper (20–25 μm pore size) just before use. Loss in absorbance by DCIP was measured at 595 nm at RT in a stepped time course (8 × 2 min, 8 × 3 min, 6 × 5 min). […] Therefore, for each concentration of inhibitor tested, a value for DHODH’s Vmax was estimated by linear regression within this time frame.

[2] = In vivo pharmacokinetic parameters of (R)-HZ05; parameters: species or system C57B1/6N mice; conditions: female, C57B1/6N, mouse, plasma, sc, 50 mg kg-1; following subcutaneous administration (Supplementary Fig. 7b); read-out: half-life (converted)
Procedure: Waters Acquity UPLC (Waters Corp.) was used for all LC/MS and LC/MS/MS experiments. For chromatographic separation a general gradient was used (5 % mobile phase B to 90 % over 2 min total run) on a C18 BEH 1.7 µm column 2 × 50 mm (Waters Corp.). Mobile phase A consisted of 5 % acetonitrile 0.1 % formic acid and mobile phase B 100 % acetonitrile 0.1 % formic acid. The flow rate was 0.5 mL min-1 and 3 µL of the sample was injected. A standard curve between 3−1000 nM was prepared for each compound. […]
In vivo Pharmacokinetic Parameter Determination
(R)-HZ05 was formulated for subcutaneous and oral administration at 5 mg mL-1 in 20 % hydroxypropyl-β-cyclodextrin in PBS and formulated at 5 mg mL-1 diluted in physiological NaCl. […]
Blood was collected […]
in EDTA tubes from three mice per time point and stored on ice with plasma separated within 30 min by centrifugation at 2000 g and stored at –80 ° C until analysis at 0.08, 0.25, 0.5, 1, 2, 3, 4, 6 and 24 h post administration. […] internal standard (9 nM warfarin) was added to each plasma sample and each sample was shaken at RT for 10 min followed by centrifugation at 2000 g for 30 min at 4 °C. […] of sample was injected into an Acquity UPLC coupled to a triple quadrupole mass spectrometer (Waters) operated in MRM mode with positive electrospray ionization. MRM transition 381.09 > […]
CV and 40 V for CE) as a qualifier ion. Transition for internal standard was 309.16 > 163.005 (22 V for CV and 14 V for CE). Ion source conditions were: capillary voltage, 2000 V; desolvation temperature, 500 °C; desol vation gas flow rate, 1000 L h-1. Separation was conducted using a BEH C18 column (2.1 × 50 mm, 1.7 µm, Waters) using a linear gradient: 0 – 0.5 min, 5 % B; […], 100 % B, 1.61–2.00 min, 5 % B. Mobile phase A was 5 % acetonitrile with 0.1 % formic acid and B […]
All animal experimentation was carried out by Sweden
Contract In vivo Design AB in compliance with 2010/63/EU directive and approved by Stockholms Norra Djurförsöksetiska Nämnd (laboratory animal eth ical committee Stockholm) with the approval number N61/15. Any single plasma concentration value deviated by >10 times from the other two values was excluded from the pharmacokinetic evaluation, but was included in the figure. […]

[3] = tested on: ARN8 cells; test: Giemsa staining of ARN8 cultures (uridine, orotic acid, dihydroorotic acid supplementation); type: cell-based, human; conditions: 72 h, 2.5 or 5 μM uridine, serum replacement medium
Procedure: Additionally, ARN8 cells were treated for 16 h and p53-dependent transcription was measured by CPRG assay. Values correspond to the average of three technical repeats ± SD. c Simplified description of the pyrimidine nucleotide de novo (blue) and salvage (black) pathways. d ARN8 cells were seeded in FBS supplemented DMEM with a change to serum replacement medium 24 h post seeding. […] Values correspond to the average of three technical repeats ± SD. f ARN8 cells were seeded in FBS supplemented DMEM with a change to serum replacement medium 24 h post seeding.

[4] = tested on: MV411 cells; test: PI flow cytometry, sub-G1 cells, MV411; type: cell-based
Procedure: Cell cycle distribution analysis was performed on a Becton Dickinson FACScan flow cytometer or FACSCalibur (BD Biosciences) following staining with propidium iodide (PI) or dual labeling with BrdU and PI[36]. These assays were analyzed using CellQuest Pro (BD Biosciences).

[5] = tested on: HNDF cells; test: MTT growth/viability assay, HNDF; type: cell-based, human; conditions: 72 h
Procedure: MTT assays were performed in 96 well plates. After treatments, medium was replaced with 200 μL of MTT solution (3 mg mL^−1 MTT (Sigma #M2128) in PBS diluted 1:5 in growth medium). […] Volume of 200 μL DMSO per well were added and plates were read at 570 nm.

[6] = tested on: protein kinases; test: Radioactive filter-binding assays, panel of 140 kinases (Supplementary Table 2); type: biochemical
Procedure: Supplementary Table 2. In vitro inhibition (% remaining activity) of protein
free assays. Screening was performed by the International Centre for Kinase Profiling
(Dundee, UK) using radioactive ( P-ATP) filter-binding assays.
(1 picture or pasted object on this page, not shown here)

[7] = tested on: p53 and p53-induced proteins in ARN8 cells; test: Western blotting of p53, hdm2 and p21 levels; type: cell-based, human; conditions: ARN8 melanoma cells
Procedure: Levels of p53, as well as downstream targets hdm2 (human mdm2) and p21 were determined. Levels of gapdh were used to monitor protein loading. e ARN8 or HNDF cells were treated with the indicated compound concentrations for 72 h and subjected to MTT assays. […] Incorporation of ^35S in the p53 immunoprecipitate was determined by autoradiography. The experiment is shown in duplicate
Protein extracts were prepared in 1× LDS sample buffer (Invitrogen) with 100 mM DTT and separated and transferred using the Invitrogen western blotting system except in Supplementary Fig. 1c where the BioRad western blotting system was used. HRP-conjugated secondary antibodies were obtained from Dako (#P016102 and #P0211702) or Santa Cruz (#SC-2020). Immunofluorescence was performed by fixing cells in 4% paraformaldehyde freshly made in PBS for 10 min at 37 °C. Following fixation, cells were permeabilized in 0.15% Triton X-100 for 1–2 min at 37 °C followed by staining with the indicated antibodies. Images were taken using Olympus IX-71 microscope controlled by DeltaVision SoftWoRx. Image stacks were deconvolved, quick-projected and saved as tiff images to be processed using Adobe Photoshop. Antibodies to specific antigens are listed in Supplementary Table 8. All original films for blots in Fig. 1 are shown in Supplementary Figs. 9–12.

Chain of recombinant human DHODH (Q02127 29-395 limits assumed): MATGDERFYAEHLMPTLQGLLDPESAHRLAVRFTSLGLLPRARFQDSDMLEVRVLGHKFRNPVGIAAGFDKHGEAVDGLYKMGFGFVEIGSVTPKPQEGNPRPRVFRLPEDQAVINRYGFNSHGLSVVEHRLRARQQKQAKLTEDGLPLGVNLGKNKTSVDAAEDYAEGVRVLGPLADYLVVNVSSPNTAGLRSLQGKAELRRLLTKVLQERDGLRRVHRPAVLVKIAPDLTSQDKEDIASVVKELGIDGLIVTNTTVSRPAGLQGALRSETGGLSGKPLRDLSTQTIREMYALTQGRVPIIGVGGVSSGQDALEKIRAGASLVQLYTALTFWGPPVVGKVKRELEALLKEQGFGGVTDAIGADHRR

| SMILES | IC50 ([1]; Fig. 5a, average of three independent repeats ± SD) | concentration inhibiting DHODH enzymatic activity ([1]; authors' response in peer review file) | half-life [2] | tumor cell growth at physiological uridine levels [3] | sub-G1 cells ([4]; HZ05 1 μM 72 h + 48 h, 2 μM nutlin-3a last 48 h) | sub-G1 cells ([4]; HZ05 1 μM 72 h + 48 h, DMSO last 48 h) | sub-G1 cells ([4]; HZ05 1 μM, 72 h treatment) | sub-G1 cells ([4]; HZ05 2.5 μM, 72 h treatment) | inhibitory effect on proliferation, HNDF versus ARN8 [5] | inhibition of protein kinases [6] | levels of p53 and p53-induced proteins [7] |
| --- | --- | --- | --- | --- | --- | --- | --- | --- | --- | --- | --- |
| O=C(NC1CCCc2c1cnn2-c1ccccc1F)c1onc2c1CCCC2 (centres unmarked) [HZ05] | 32 ± 2 nM | below 40 nM | 2.5 h | able to ablate tumor cell growth | 65.4% | 30.2% | 5.5% | 6.2% |  |  |  |
| O=C(NC1CCCc2c1cnn2-c1ccccc1F)c1ccccn1 (centres unmarked) [HZ00] |  |  |  |  |  |  |  |  | lesser inhibitory effect on proliferation of HNDFs than on the growth of ARN8 cells | did not detect inhibition | increased the levels of p53 and p53-induced proteins |
